Assay results from US10899738B2 (THE REGENTS OF THE UNIVERSITY OF MICHIGAN, priority 2016, dated 2021).

Molecular target: menin protein (Homo sapiens (Human), UniProt O00255)
Test: biochemical
Format: binding
Conditions: FP competitive binding; menin protein 4 nM, FAM-MM2 probe 2 nM
Method: A fluorescence polarization (FP) competitive binding assay was used to determine the binding affinities of representative menin inhibitors. A FAM labeled fluorescent probe was designed and synthesized based on a MLL1 peptide (FAM-MM2). Equilibrium dissociation constant (Kd) value of FAM-MM2 to menin protein was determined from protein saturation experiments by monitoring the total fluorescence polarization of mixtures composed with the fluorescent probe at a fixed concentration and the protein with increasing concentrations up to full saturation. Serial dilutions of the protein were mixed with FAM-MM2 to a final volume of 200 μl in the assay buffer (PBS with 0.02% Bovine γ-Globulin and 4% DMSO. 0.01% Triton X-100 was added right before assays). Final FAM-MM2 concentration was 2 nM. Plates were incubated at room temperature for 30 minutes with gentle shaking to assure equilibrium.
The IC50, see Table 3, and Ki values of representative Compounds of the Disclosure were determined in a competitive binding experiment. Mixtures of 5 μl of the tested compounds in DMSO and 195 μl of preincubated protein/probe complex solution in the assay buffer were added into assay plates which were incubated at room temperature for 30 minutes with gentle shaking. Final concentration of the menin protein was 4 nM, and final probe concentration is 2 nM. […] FP values were measured as described above. IC50 values were determined by nonlinear regression fitting of the competition curves.

menin protein, sequence (O00255 whole entry): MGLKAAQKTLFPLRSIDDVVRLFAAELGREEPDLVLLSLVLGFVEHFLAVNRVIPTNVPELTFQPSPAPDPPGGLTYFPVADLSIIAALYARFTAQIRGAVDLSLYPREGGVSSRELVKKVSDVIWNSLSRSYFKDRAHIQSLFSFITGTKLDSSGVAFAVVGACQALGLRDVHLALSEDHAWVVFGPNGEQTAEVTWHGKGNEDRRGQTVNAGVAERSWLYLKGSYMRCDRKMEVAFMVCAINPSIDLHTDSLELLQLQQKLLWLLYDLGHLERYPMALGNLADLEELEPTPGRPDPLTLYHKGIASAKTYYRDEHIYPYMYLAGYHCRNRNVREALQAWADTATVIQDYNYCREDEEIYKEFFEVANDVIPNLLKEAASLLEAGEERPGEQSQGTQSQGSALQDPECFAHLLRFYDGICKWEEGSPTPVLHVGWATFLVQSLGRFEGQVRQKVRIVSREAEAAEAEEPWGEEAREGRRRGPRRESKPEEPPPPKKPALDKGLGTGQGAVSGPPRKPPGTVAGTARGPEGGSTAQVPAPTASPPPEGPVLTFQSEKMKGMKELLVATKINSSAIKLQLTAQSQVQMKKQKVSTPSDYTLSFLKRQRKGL

| Compound | Menin Binding Affinity IC50 (μM) |
| --- | --- |
| CCN1Cc2ccccc2C(C2CCCC2)(C2CCN(Cc3ccccc3Oc3ccc(C#N)cc3)CC2)C1 (stereo not shown) [compound 163, 4-(2-((4-(4-cyclopentyl-2-ethyl-1,2,3,4-tetrahydroisoquinolin-4-yl)piperidin-1-yl)methyl)phenoxy)benzonitrile] | No inhibition |
| CCN1Cc2ccccc2C(C2CCCC2)(C2CCN(Cc3ccccc3Oc3ccc(S(=O)(=O)c4ccncc4)cc3)CC2)C1 (stereo not shown) [compound 162, 4-cyclopentyl-2-ethyl-4-(1-(2-(4-(pyridin-4-ylsulfonyl)phenoxy)benzyl)piperidin-4-yl)-1,2,3,4-tetrahydroisoquinoline] | No inhibition |
| c1ccc(CN2CC(C3(C4CCCC4)NCCc4ccccc43)C2)cc1 (stereo not shown) [compound 57, 1-(1-benzylazetidin-3-yl)-1-cyclopentyl-1,2,3,4-tetrahydroisoquinoline] | No inhibition |

Same assay, conditions: FP competitive binding; menin protein 4 nM, FAM-MM2 probe 2 nM; read-out: Menin Binding Affinity IC50

| Compound | IC50 [nM] |
| --- | --- |
| Cc1nccn1CC(c1ccccc1)(C1CCCC1)C1CCN(CCCOc2ccc(C#N)cc2)CC1 (stereo not shown) [compound 41, 4-(3-(4-(1-cyclopentyl-2-(2-methyl-1H-imidazol-1-yl)-1-phenylethyl)piperidin-1-yl)propoxy)benzonitrile] | 166 |
| CCNC(=O)[C@H]1CCC[C@@H]1C(C#N)(c1ccccc1)C1CCN(CC2CN(c3ccc(S(=O)(=O)C4CC4)cc3)C2)CC1 (mixture of isomers) [compound 335, rac-(1S,2S)-2-(cyano(1-((1-(4-(cyclopropylsulfonyl)phenyl)azetidin-3-yl)methyl)piperidin-4-yl)(phenyl)methyl)-N-ethylcyclopentane-1-carboxamide] | 5600 |
| O=S(=O)(c1ccccc1)c1ccc(N2CC(CN3CCC(C(CN4CCCC4)(C4=CCCC4)c4ccccc4)CC3)C2)cc1 (stereo not shown) [compound 355, 4-(1-(cyclopent-1-en-1-yl)-1-phenyl-2-(pyrrolidin-1-yl)ethyl)-1-((1-(4-(phenylsulfonyl)phenyl)azetidin-3-yl)methyl)piperidine] | 45 |
| CN1Cc2cccc(F)c2C(C2CCCC2)(C2CCN(CCCOc3ccc(C#N)cc3)CC2)C1 (stereo not shown) [compound 31, 4-(3-(4-(4-cyclopentyl-5-fluoro-2-methyl-1,2,3,4-tetrahydroisoquinolin-4-yl)piperidin-1-yl)propoxy)benzonitrile] | 37 |
| CO[C@H]1CCC[C@@H]1C(C#N)(c1ccccc1)C1CCN(CC2CN(c3ccc(S(C)(=O)=O)cc3)C2)CC1 (mixture of isomers) [compound 181, rac-2-((1R,2S)-2-methoxycyclopentyl)-2-(1-((1-(4-(methylsulfonyl)phneyl)azetidin-3-yl)methyl)piperidin-4-yl)-2-phenylacetonitrile] | 18100 |
| N#CC(c1ccccc1)(C1CCN(CC2CN(c3ccc(S(=O)(=O)c4ccncc4)cc3)C2)CC1)[C@H]1CCC[C@@H]1OC(=O)N1CCC1 (mixture of isomers) [compound 221, rac-(1S,2R)-2-(cyano(phenyl)(1-((1-(4-(pyridin-4-ylsulfonyl)phenyl)azetidin-3-yl)methyl)piperidin-4-yl)methyl)cyclopentyl azetidine-1-carboxylate] | 75 |
| COC[C@H]1CCC[C@@H]1C(C#N)(c1ccccc1)C1CCN(CC2CN(c3ccc(S(=O)(=O)C4CC4)cc3)C2)CC1 (mixture of isomers) [compound 265, rac-2-(1-((1-(4-(cyclopropylsulfonyl)phenyl)azetidin-3-yl)methyl)piperidin-4-yl)-2-((1S,2S)-2-(methoxymethyl)cyclopentyl)-2-phenylacetonitrile] | 4900 |
| N#Cc1ccc(OCCCN2CC=C(C3(C4CCCC4)NCCc4ccccc43)CC2)cc1 (stereo not shown) [compound 79, 4-(3-(4-(1-cyclopentyl-1,2,3,4-tetrahydroisoquinolin-1-yl)-3,6-dihydropyridin-1(2H)-yl)propoxy)benzonitrile] | 700 |
| CC(=O)N[C@@H]1CCC[C@H]1C(C#N)(c1ccccc1)C1CCN(CC2CN(c3ccc(S(=O)(=O)C4CC4)cc3)C2)CC1 (mixture of isomers) [compound 282, rac-N-((1R,2S)-2-(cyano(1-((1-(4-(cyclopropylsulfonyl)phenyl)azetidin-3-yl)methyl)piperidin-4-yl)(phenyl)methyl)cyclopentyl) acetamide] | 3300 |
| N#CC(c1ccccc1)(C1CCN(CC2CN(c3ccc(S(=O)(=O)c4ccccc4)cc3)C2)CC1)[C@@H]1CCC[C@H]1OC(N)=O (mixture of isomers) [compound 224, rac-(1R,2S)-2-(cyano(phenyl)(1-((1-(4-(phenylsulfonyl)phenyl)azetidin-3-yl)methyl)piperidin-4-yl)methyl)cyclopentyl carbamate] | 331 |
| CC(=O)O[C@H]1CCC[C@@H]1C(C#N)(c1cccc(F)c1)C1CCN(CC2CN(c3ccc(C#N)cc3)C2)CC1 (mixture of isomers) [compound 415, rac-(1S,2R)-2-(cyano(1-((1-(4-cyanophenyl)azetidin-3-yl)methyl)piperidin-4-yl)(3-fluorophenyl)methyl) cyclopentyl acetate] | 16 |
| N#Cc1ccc2c(c1)CCN(C(=O)CN1CCC(C3(C4CCCC4)NCCc4ccccc43)CC1)C2 (stereo not shown) [compound 83, 2-(2-(4-(1-cyclopentyl-1,2,3,4-tetrahydroisoquinolin-1-yl)piperidin-1-yl)acetyl)-1,2,3,4-tetrahydroisoquinoline-6-carbonitrile] | 847 |
| CS(=O)(=O)C[C@H]1CCC[C@@H]1C(C#N)(c1ccccc1)C1CCN(CC2CN(c3ccc(S(=O)(=O)c4ccncc4)cc3)C2)CC1 (mixture of isomers) [compound 255, rac-2-((1S,2S)-2-((methylsulfonyl)methyl)cyclopentyl)-2-phenyl-2-(1-((1-(4-(pyridin-4-ylsulfonyl)phenyl)azetidin-3-yl)methyl)piperidin-4-yl)acetonitrile] | 4700 |
| CS(=O)(=O)c1ccc(N2CC(CN3CCC(C(C#N)(c4ccccc4)[C@H]4CCC[C@@H]4O)CC3)C2)cc1 (mixture of isomers) [compound 178, rac-2-((1R,2S)-2-hydroxycyclopentyl)-2-(1-((1-(4-(methylsulfonyl)phenyl)azitidin-3-yl)methyl)piperidin-4-yl)-2-phenylacetonitrile] | 6500 |
| CC(=O)N[C@@H]1CCC[C@H]1C(C#N)(c1ccccc1)C1CCN(CC2CN(c3ccc(C#N)cc3)C2)CC1 (mixture of isomers) [compound 383, rac-N-((1R,2S)-2-(cyano(1-((1-(4-cyanophenyl)azetidin-3-yl)methyl)piperidin-4-yl)(phenyl)methyl)cyclopentyl)acetamide] | 2500 |
| N#CC(c1ccccc1)(C1CCN(CC2CN(c3ccc(S(=O)(=O)c4ccncc4)cc3)C2)CC1)[C@H]1CCC[C@@H]1OC(=O)C1CCC1 (mixture of isomers) [compound 209, rac-(1S,2R)-2-(cyano(phenyl)(1-((1-(4-(pyridin-ylsulfonyl)phenyl)azetidin-3-yl)methyl)piperidin-4-yl)methyl)cyclopentyl cyclobutanecarboxylate] | 111 |
| COCC[C@@H]1CCC[C@H]1C(C#N)(c1ccccc1)C1CCN(CC2CN(c3ccc(S(=O)(=O)c4ccnc(C)c4)cc3)C2)CC1 (mixture of isomers) [compound 337, rac-2-((1R,2S)-2-(2-methoxyethyl)cyclopentyl)-2-(1-((1-(4-((2-methylpyridin-4-yl)sulfonyl)phenyl)azetidin-3-yl)methyl)piperidin-4-yl)-2-phenylacetonitrile] | 25800 |
| CN1Cc2cccc(Cl)c2C(C2CCCC2)(C2CCN(CCCOc3ccc(C#N)cc3)CC2)C1 (stereo not shown) [compound 34, 4-(3-(4-(5-chloro-4-cyclopentyl-2-methyl-1,2,3,4-tetrahydroisoquinolin-4-yl)piperidin-1-yl)propoxy)benzonitrile] | 1800 |
| N#CC(c1ccccc1)(C1CCCC1)C1CCN(CCCOc2ccc(S(=O)(=O)c3ccccc3)cc2)CC1 (stereo not shown) [compound 126, 2-cyclopentyl-2-phenyl-2-(1-(3-(4-(phenylsulfonyl)phenoxy)propyl)piperidin-4-yl)acetonitrile] | 58400 |
| CN([C@H]1CCC[C@@H]1C(C#N)(c1ccccc1)C1CCN(CC2CN(c3ccc(S(=O)(=O)C4CC4)cc3)C2)CC1)S(C)(=O)=O (mixture of isomers) [compound 273, rac-N-((1S,2R)-2-(cyano(1-((1-(4-(cyclopropylsulfonyl)phenyl)azetidin-3-yl)methyl)piperidin-4-yl)(phenyl)methyl)cyclopentyl)-N-methylmethanesulfonamide] | 37600 |
| CNC(=O)C[C@H]1CCC[C@@H]1C(C#N)(c1ccccc1)C1CCN(CC2CN(c3ccc(S(=O)(=O)c4ccncc4)cc3)C2)CC1 (mixture of isomers) [compound 340, rac-2-((1R,2S)-2-(cyano(phenyl)(1-((1-(4-(pyridin-4-ylsulfonyl)phenyl)azetidin-3-yl)methyl)piperidin-4-yl)methyl)cyclopentyl)-N-methylacetamide] | 2900 |
| CNC(=O)O[C@@H]1CCC[C@H]1C(C#N)(c1ccccc1)C1CCN(CC2CN(c3ccc(S(=O)(=O)c4ccncc4)cc3)C2)CC1 (mixture of isomers) [compound 216, rac-(1R,2S)-2-(cyano(phenyl)(1-((1-(4-(pyridin-4-ylsulfonyl)phenyl)azetidin-3-yl)methyl)piperidin-4-yl)methyl)cyclopentyl methylcarbamate] | 396 |
